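Dose response: 5 concentrations. Exposure: 48 h. Format: 96-well plates. Endpoint: linear interpolation; highest concentration if not reached. The concentration for 50% growth inhibition is given as GI50.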 Active and inactive are the calls of the source. Cut-off read from the data, not from the text of the source: active = GI50 up to about 1.1 µM and inactive = higher.
How the values were obtained:
Assay in all cases: DTP human tumour cell line panel, 48 h
HCC 2998 = tested on: HCC 2998
Malme-3M = tested on: Malme-3M
DMS-273 = tested on: DMS-273
NCI-H522 = tested on: NCI-H522
SF-268 = tested on: SF-268
XF498 = tested on: XF498
DMS-114 = tested on: DMS-114
SNB-78 = tested on: SNB-78
ACHN = tested on: ACHN
SNB-75 = tested on: SNB-75
HCT-15 = tested on: HCT-15
U-251 = tested on: U-251
CCRF-CEM = tested on: CCRF-CEM
RXF 393 = tested on: RXF 393
KM12 = tested on: KM12
HOP-92 = tested on: HOP-92
M14 = tested on: M14
OVCAR-8 = tested on: OVCAR-8
UACC-62 = tested on: UACC-62
NCI-H23 = tested on: NCI-H23
SK-OV-3 = tested on: SK-OV-3
SK-MEL-2 = tested on: SK-MEL-2
OVCAR-5 = tested on: OVCAR-5
EKVX = tested on: EKVX
SN12C = tested on: SN12C
SF-295 = tested on: SF-295
OVCAR-3 = tested on: OVCAR-3
786-0 = tested on: 786-0
COLO 205 = tested on: COLO 205
NCI-H226 = tested on: NCI-H226
SF-539 = tested on: SF-539
K562 = tested on: K562
NCI-H460 = tested on: NCI-H460
SW-620 = tested on: SW-620
HT-29 = tested on: HT-29
HOP-18 = tested on: HOP-18
UO-31 = tested on: UO-31
TK-10 = tested on: TK-10
RPMI-8226 = tested on: RPMI-8226
RXF 631 = tested on: RXF 631
HL-60 = tested on: HL-60
KM-20L2 = tested on: KM-20L2
LXFL 529 = tested on: LXFL 529
DLD-1 = tested on: DLD-1
SNB-19 = tested on: SNB-19
SK-MEL-28 = tested on: SK-MEL-28
UACC-257 = tested on: UACC-257
SR = tested on: SR
SK-MEL-5 = tested on: SK-MEL-5
MOLT-4 = tested on: MOLT-4
HCT-116 = tested on: HCT-116
LOX IMVI = tested on: LOX IMVI
IGROV-1 = tested on: IGROV-1
HOP-62 = tested on: HOP-62
A549 = tested on: A549
M19-MEL = tested on: M19-MEL
A498 = tested on: A498
OVCAR-4 = tested on: OVCAR-4
CAKI-1 = tested on: CAKI-1

Q: How did the GI50 (HCC 2998) turn out when `COC1C2c3cc4c(cc3CC(C#N)(c3ccccc32)N1C(=O)c1ccccc1)OCO4` (configuration not stated) was run?
A: > 100 µM (inactive)

Q: What about the GI50 (Malme-3M) of the same compound?
A: > 100 µM (inactive)

Q: What about the GI50 (DMS-273) of the same compound?
A: > 100 µM (inactive)

Q: And the GI50 (NCI-H522)?
A: 87.3 µM (inactive)

Q: What about the GI50 (SF-268) of the same compound?
A: > 100 µM (inactive)

Q: What about the GI50 (XF498) of the same compound?
A: > 100 µM (inactive)

Q: What about the GI50 (DMS-114) of the same compound?
A: 70.6 µM (inactive)

Q: And the GI50 (SNB-78)?
A: > 100 µM (inactive)

Q: What about the GI50 (ACHN) of the same compound?
A: > 100 µM (inactive)

Q: And the GI50 (SNB-75)?
A: > 100 µM (inactive)

Q: What about the GI50 (HCT-15) of the same compound?
A: > 100 µM

Q: What about the GI50 (U-251) of the same compound?
A: > 100 µM (inactive)

Q: And the GI50 (CCRF-CEM)?
A: > 100 µM (inactive)

Q: What about the GI50 (RXF 393) of the same compound?
A: 32.2 µM (inactive)

Q: What about the GI50 (KM12) of the same compound?
A: > 100 µM (inactive)

Q: And the GI50 (HOP-92)?
A: > 100 µM (inactive)

Q: What about the GI50 (M14) of the same compound?
A: > 100 µM (inactive)

Q: What about the GI50 (OVCAR-8) of the same compound?
A: > 100 µM (inactive)

Q: And the GI50 (UACC-62)?
A: 4.94 µM (inactive)

Q: What about the GI50 (NCI-H23) of the same compound?
A: > 100 µM (inactive)

Q: What about the GI50 (SK-OV-3) of the same compound?
A: > 100 µM (inactive)

Q: And the GI50 (SK-MEL-2)?
A: > 100 µM (inactive)

Q: And the GI50 (OVCAR-5)?
A: > 100 µM (inactive)

Q: What about the GI50 (EKVX) of the same compound?
A: > 100 µM (inactive)

Q: And the GI50 (SN12C)?
A: > 100 µM (inactive)

Q: What about the GI50 (SF-295) of the same compound?
A: > 100 µM (inactive)

Q: What about the GI50 (OVCAR-3) of the same compound?
A: > 100 µM (inactive)

Q: And the GI50 (786-0)?
A: > 100 µM (inactive)

Q: What about the GI50 (COLO 205) of the same compound?
A: > 100 µM (inactive)

Q: What about the GI50 (NCI-H226) of the same compound?
A: 93.3 µM (inactive)

Q: What about the GI50 (SF-539) of the same compound?
A: > 100 µM (inactive)

Q: And the GI50 (K562)?
A: 54.6 µM (inactive)

Q: And the GI50 (NCI-H460)?
A: > 100 µM (inactive)

Q: And the GI50 (SW-620)?
A: > 100 µM (inactive)

Q: What about the GI50 (HT-29) of the same compound?
A: > 100 µM (inactive)

Q: And the GI50 (HOP-18)?
A: > 100 µM (inactive)

Q: What about the GI50 (UO-31) of the same compound?
A: 78.3 µM (inactive)

Q: And the GI50 (TK-10)?
A: > 100 µM (inactive)

Q: What about the GI50 (RPMI-8226) of the same compound?
A: 21 µM (inactive)

Q: And the GI50 (RXF 631)?
A: > 100 µM (inactive)

Q: What about the GI50 (HL-60) of the same compound?
A: > 100 µM (inactive)

Q: What about the GI50 (KM-20L2) of the same compound?
A: > 100 µM (inactive)

Q: And the GI50 (LXFL 529)?
A: > 100 µM (inactive)

Q: And the GI50 (DLD-1)?
A: > 100 µM (inactive)

Q: And the GI50 (SNB-19)?
A: > 100 µM (inactive)

Q: What about the GI50 (SK-MEL-28) of the same compound?
A: > 100 µM (inactive)

Q: And the GI50 (UACC-257)?
A: > 100 µM (inactive)

Q: What about the GI50 (SR) of the same compound?
A: 54.7 µM (inactive)

Q: And the GI50 (SK-MEL-5)?
A: 33 µM (inactive)

Q: What about the GI50 (MOLT-4) of the same compound?
A: 97.5 µM (inactive)

Q: What about the GI50 (HCT-116) of the same compound?
A: > 100 µM (inactive)

Q: And the GI50 (LOX IMVI)?
A: > 100 µM (inactive)

Q: What about the GI50 (IGROV-1) of the same compound?
A: > 100 µM (inactive)

Q: What about the GI50 (HOP-62) of the same compound?
A: 48 µM (inactive)

Q: Which GI50 (HCC 2998) does the source give for `CCOc1ccc(NC(=O)C(=O)CC(=O)c2c[n+]([O-])c3cc(C)c(C)cc3[n+]2[O-])cc1` here?
A: > 100 µM (inactive)

Q: What about the GI50 (Malme-3M) of the same compound?
A: > 100 µM (inactive)

Q: What about the GI50 (DMS-273) of the same compound?
A: > 100 µM (inactive)

Q: And the GI50 (NCI-H522)?
A: > 100 µM (inactive)

Q: What about the GI50 (SF-268) of the same compound?
A: > 100 µM (inactive)

Q: And the GI50 (XF498)?
A: > 100 µM (inactive)

Q: And the GI50 (DMS-114)?
A: > 100 µM (inactive)

Q: What about the GI50 (SNB-78) of the same compound?
A: > 100 µM (inactive)

Q: What about the GI50 (ACHN) of the same compound?
A: > 100 µM (inactive)

Q: And the GI50 (SNB-75)?
A: > 100 µM (inactive)

Q: What about the GI50 (HCT-15) of the same compound?
A: > 100 µM

Q: What about the GI50 (A549) of the same compound?
A: > 100 µM (inactive)

Q: What about the GI50 (U-251) of the same compound?
A: > 100 µM (inactive)

Q: And the GI50 (CCRF-CEM)?
A: > 100 µM (inactive)

Q: What about the GI50 (RXF 393) of the same compound?
A: > 100 µM (inactive)

Q: What about the GI50 (KM12) of the same compound?
A: > 100 µM (inactive)

Q: What about the GI50 (HOP-92) of the same compound?
A: > 100 µM (inactive)

Q: And the GI50 (M14)?
A: > 100 µM (inactive)

Q: What about the GI50 (OVCAR-8) of the same compound?
A: > 100 µM (inactive)

Q: What about the GI50 (UACC-62) of the same compound?
A: > 100 µM (inactive)

Q: And the GI50 (NCI-H23)?
A: > 100 µM (inactive)

Q: And the GI50 (SK-OV-3)?
A: > 100 µM (inactive)

Q: What about the GI50 (SK-MEL-2) of the same compound?
A: > 100 µM (inactive)

Q: And the GI50 (OVCAR-5)?
A: > 100 µM (inactive)

Q: What about the GI50 (EKVX) of the same compound?
A: 90.8 µM (inactive)

Q: And the GI50 (SN12C)?
A: > 100 µM (inactive)

Q: And the GI50 (SF-295)?
A: > 100 µM (inactive)

Q: And the GI50 (OVCAR-3)?
A: > 100 µM (inactive)

Q: And the GI50 (M19-MEL)?
A: > 100 µM (inactive)

Q: And the GI50 (786-0)?
A: > 100 µM (inactive)

Q: And the GI50 (COLO 205)?
A: > 100 µM (inactive)

Q: And the GI50 (NCI-H226)?
A: > 100 µM (inactive)

Q: And the GI50 (SF-539)?
A: > 100 µM (inactive)

Q: And the GI50 (A498)?
A: > 100 µM (inactive)

Q: What about the GI50 (K562) of the same compound?
A: > 100 µM (inactive)

Q: What about the GI50 (NCI-H460) of the same compound?
A: > 100 µM (inactive)

Q: And the GI50 (SW-620)?
A: > 100 µM (inactive)

Q: And the GI50 (HT-29)?
A: > 100 µM (inactive)

Q: And the GI50 (HOP-18)?
A: > 100 µM (inactive)

Q: And the GI50 (UO-31)?
A: > 100 µM (inactive)

Q: And the GI50 (TK-10)?
A: > 100 µM (inactive)

Q: What about the GI50 (RPMI-8226) of the same compound?
A: > 100 µM (inactive)

Q: And the GI50 (RXF 631)?
A: > 100 µM (inactive)

Q: And the GI50 (HL-60)?
A: > 100 µM (inactive)

Q: What about the GI50 (KM-20L2) of the same compound?
A: > 100 µM (inactive)

Q: And the GI50 (LXFL 529)?
A: > 100 µM (inactive)

Q: What about the GI50 (OVCAR-4) of the same compound?
A: > 100 µM (inactive)

Q: What about the GI50 (SNB-19) of the same compound?
A: > 100 µM (inactive)

Q: And the GI50 (SK-MEL-28)?
A: > 100 µM (inactive)

Q: What about the GI50 (UACC-257) of the same compound?
A: > 100 µM (inactive)

Q: And the GI50 (SR)?
A: > 100 µM (inactive)

Q: And the GI50 (SK-MEL-5)?
A: > 100 µM (inactive)

Q: What about the GI50 (MOLT-4) of the same compound?
A: > 100 µM (inactive)

Q: And the GI50 (HCT-116)?
A: > 100 µM (inactive)

Q: What about the GI50 (CAKI-1) of the same compound?
A: > 100 µM (inactive)

Q: What about the GI50 (LOX IMVI) of the same compound?
A: > 100 µM (inactive)

Q: And the GI50 (IGROV-1)?
A: > 100 µM (inactive)

Q: What about the GI50 (HOP-62) of the same compound?
A: > 100 µM (inactive)
